The term logP denotes the decadic logarithm of the partition coefficient of the neutral form, usually between octanol and water. A higher logP goes with higher lipophilicity. The logD is lipophilicity at a set pH, counting ionised and neutral species. A higher logD goes with a more lipophilic compound.

The values that follow come from the SangsterLogP compilation.

Structures are written as SMILES.

Experiment in one series: not given
Conditions: not given
`CCOC(=O)c1ccco1` displayed a logP of 1.57.

`CNC(=O)c1ccccc1` came in with a logP of 1.05.

Take `c1cncnc1`: the logP is -0.34.

`Cc1c[nH]c2ccccc12` gave a logP of 2.61.

`CCc1cnccn1` gave a logP of 0.79.

In the case of `c1ccoc1`, the logP is 1.31.

Experiment in the next series: not given
Conditions: not given
The source holds these as a separate data set.
As for `CC(=O)N(CCO)c1c(I)c(C(=O)N(C)CC(O)CO)c(I)c(C(=O)N(C)CC(O)CO)c1I` (centres undefined), the logP was -2.33.

Take `CC(=O)Nc1c(I)c(C(=O)N(C)CC(O)CO)c(I)c(C(=O)N(C)CC(O)CO)c1I` (centres undefined): the logP was -2.14.

Consider `CC(=O)Nc1c(I)c(C(=O)NC(CO)CO)c(I)c(C(=O)NC(CO)CO)c1I`, for which the logP was -2.22.

As to `CC(=O)N(C)c1c(I)c(C(=O)NCC(O)CO)c(I)c(C(=O)NCC(O)CO)c1I` (centres undefined), the logP was -2.13.

The next series in a line: method code SF-AS, from PMID: 3699148. Conditions: pH 7.4.
In the case of `NC(=O)c1ccccc1NCC(O)CO` (centres undefined), the logD was -0.8.

For the compound `Cc1ccccc1OCCNc1ccccc1C(N)=O`, the logD came out at 2.94.

The compound `NC(=O)c1ccccc1NCCCO` showed a logD of 0.7.

`CCCCOCCNc1ccccc1C(N)=O` had a logD of 2.27.

In turn, `CC(O)CNc1ccccc1C(N)=O` (centres undefined) showed a logD of 0.62.

`CCCCOCCNc1ccc(Cl)cc1C(N)=O` returned a logD of 2.99.

Experiment in a further series: not given
Conditions: not given
This is another data set of the same source.
As to `Cc1cc[n+]([O-])cc1`, the logP is -0.88.

As for `N#Cc1cc[n+]([O-])cc1`, the logP was -0.91.

Consider `[O-][n+]1ccc(Cl)cc1`, for which the logP was -0.44.

For the compound `CCOc1cc[n+]([O-])cc1`, the logP was -0.53.

Take `CC(=O)c1cc[n+]([O-])cc1`: the logP was -0.93.

Turning to `[O-][n+]1cccc2ccccc21`, the logP is 0.41.

A further series in a line: method code SF-AS, from DOI: 10.1016/0021-9673(91)80064-n.
Conditions: not given
Consider `C=CC(=O)NCCN(C)C`, for which the logP was -0.25.

`C=CC(=O)NCCCN(CC)CC` showed a logP of 0.72.

`C=CC(=O)NCCCN1CCSCC1` gave a logP of 0.54.

Turning to `C=CC(=O)NCCCN(CCO)CCO`, the logP was -0.6.

In the case of `C=CC(=O)NCCc1c[nH]cn1`, the logP is -0.21.

Consider `C=CC(=O)NCCCN(C)C`, for which the logP came out at 0.

The next series is described as follows: method code SF-AS, from DOI: 10.2307/3577276, PMID: 2913608.
Conditions: not given
Turning to `CC(C)(C)c1ccc(NS(=O)(=O)c2[nH]cnc2[N+](=O)[O-])cc1`, the log partition coefficient (logP) worked out at 2.28.

For `CC(=O)Nc1cccc(NS(=O)(=O)c2[nH]cnc2[N+](=O)[O-])c1`, the logP was 0.2.

As for `Cn1cnc([N+](=O)[O-])c1S(N)(=O)=O`, the logP was -0.74.

Regarding `CCNS(=O)(=O)c1[nH]cnc1[N+](=O)[O-]`, the logP was -0.37.

`O=[N+]([O-])c1nc[nH]c1S(=O)(=O)NC1CCCCC1` had a logP of 1.38.

For `CC(=O)Nc1ccccc1NS(=O)(=O)c1[nH]cnc1[N+](=O)[O-]`, the logP is -0.06.

The nature of a further series: method code SF-HPLC, from DOI: 10.1016/s0021-9673(01)88640-4.
Conditions: not given
For `N#CN=[N+]([O-])c1ncccn1`, the logP was -0.31.

On to `N#CN=[N+]([O-])c1cc[n+]([O-])c2ccccc12`, for which the log partition coefficient (logP) was 1.12.

`N#CN=[N+]([O-])c1ccnc2ccccc12` showed a logP of 2.07.

For the compound `N#CN=[N+]([O-])c1cc[n+]([O-])cc1`, the logP is -0.41.

Take `N#CN=[N+]([O-])c1ccccn1`: the logP turned out to be 0.53.

`N#CN=[N+]([O-])c1cccc2ccccc12` came in with a logP of 3.17.

The nature of another series: method code SF-AS, from DOI: 10.1007/bf02877675, PMID: 411721.
Conditions: not given
The compound `N#CC(C#N)=NNc1ccc(Cl)cc1` gave a logP of 3.08.

Compound `N#CC(C#N)=NNc1ccc([N+](=O)[O-])cc1` displayed a logP of 2.34.

For `N#CC(C#N)=NNc1ccc(Cl)c(Cl)c1`, the logP was determined as 3.42.

As for `N#CC(C#N)=NNc1ccccc1Cl`, the logP was 2.65.

In turn, `CC(=O)c1ccc(NN=C(C#N)C#N)cc1` gave a logP of 2.17.

Consider `N#CC(C#N)=NNc1ccc(Br)cc1`, for which the logP was 3.38.

The nature of another series: method code SF-AS, from DOI: 10.1021/jm00223a031, PMID: 810572.
Conditions: not given
`Oc1ccnc2c(O)cccc12`: the logP is 0.62.

For `Cc1ccc(O)c2ncccc12`, the logP stood at 2.37.

`Cc1ccnc2c(O)ccc(C)c12` showed a logP of 2.71.

Take `Nc1ccc(O)c2ncccc12`: the logP was -0.11.

For the compound `Cc1ccnc2c(O)ccc(O)c12`, the logP was 1.59.

Compound `COc1ccc(O)c2nccc(C)c12` yielded a logP of 2.75.

Another series is described as follows: method code SF, from DOI: 10.1002/jps.2600830714, PMID: 7965679.
Conditions: not given
In the case of `CO[C@H]1O[C@H](CO)[C@@H](O)[C@H](O)[C@H]1NC(=O)CNC(=O)N(CCCl)N=O`, the logP is -1.04.

On to `NC(=O)CNC(=O)N(CCCl)N=O`, for which the logP is -0.3.

As to `COC1OC(CO)C(O)C(O)C1NC(=O)C(C)NC(=O)N(CCCl)N=O` (centres undefined), the logP is -0.76.

`CC(=O)OC[C@H]1O[C@@H](OC(C)=O)[C@H](NC(=O)CNC(=O)N(CCCl)N=O)[C@@H](OC(C)=O)[C@@H]1OC(C)=O` displayed a logP of 0.61.

Regarding `O=NN(CCCl)C(=O)NCC(=O)NC1C(O)OC(CO)C(O)C1O` (centres undefined), the logP is -1.1.

On to `CC(NC(=O)N(CCCl)N=O)C(=O)NC1C(O)OC(CO)C(O)C1O` (centres undefined), for which the logP is -1.02.

A short description of the next series: method code SF, from DOI: 10.1016/0360-3016(86)90226-9, PMID: 3744928. The conditions noted are these: pH 7.4.
Take `COC(=O)Cn1cnc([N+](=O)[O-])n1`: the logD is -0.38.

Turning to `CCOCC(O)Cn1cnc([N+](=O)[O-])n1` (centres undefined), the logD is -0.07.

On to `O=[N+]([O-])c1ncn(CC(O)CCl)n1` (centres undefined), for which the logD worked out at 0.05.

`O=[N+]([O-])c1ncn([C@H]2O[C@H](CO)[C@@H](O)[C@H]2O)n1`: the logD is -1.54.

As for `O=[N+]([O-])c1nccn1CC(O)CN1CC1` (centres undefined), the logD was -0.66.

With `O=C(Cn1cnc([N+](=O)[O-])n1)NCCCO`, the logD is -1.24.

The nature of a further series: method code SF, from DOI: 10.1016/0360-3016(89)90912-7, PMID: 2703384. The conditions noted are these: pH 7.4.
Turning to `O=[N+]([O-])c1cn(CC(O)CF)cn1` (centres undefined), the logD was -0.44.

Take `COCC(F)Cn1ccnc1[N+](=O)[O-]` (centres undefined): the logD is 0.18.

On to `COCCNC(=O)C(F)(F)Cn1ccnc1[N+](=O)[O-]`, for which the logD was -0.15.

Turning to `O=[N+]([O-])c1cn(CC(F)(F)CO)cn1`, the logD is -0.21.

`O=C(Cn1cnc([N+](=O)[O-])c1)NCCO`: the logD is -0.46.

Turning to `O=[N+]([O-])c1nccn1CC(F)(F)CO`, the logD was determined as 0.04.

The nature of the next series: method code SF-AS, from DOI: 10.1016/0147-6513(87)90041-8, PMID: 3830021.
Conditions: not given
`CCCCC(CC)Cn1c(O)c(C#N)c(C)c(/N=N/c2ccccc2[N+](=O)[O-])c1=O` (centres undefined) gave a logP of 4.5.

For `CCCCN(CCOC(C)=O)c1ccc(/N=N/c2c(C#N)cc([N+](=O)[O-])cc2C#N)c(C)c1`, the log partition coefficient (logP) is 4.

`CCn1c(O)c(C#N)c(C)c(/N=N/c2ccc(Cl)cc2[N+](=O)[O-])c1=O` registered a logP of 3.4.

On to `CC(=O)Nc1cc(NCC(C)O)c(Cl)cc1/N=N/c1ccc([N+](=O)[O-])cc1Cl` (centres undefined), for which the logP was determined as 4.

For the compound `N#CCCN(CCO)c1ccc(/N=N/c2ccc([N+](=O)[O-])cc2Cl)cc1`, the logP worked out at 3.9.

As to `CCCCn1c(=O)c2c(N)c3c(=O)c4ccccc4c(=O)c3c(N)c2c1=O`, the logP was found to be 4. This logP and that of the compound before are within 0.2 log units of each other.

The nature of the next series: method code SF-GLC, from DOI: 10.1016/0378-4274(82)90116-3, PMID: 7090003.
Conditions: not given
`C=CC(=O)OCC(C)C` showed a logP of 2.22.

`C=C(C)C(=O)OCCO` displayed a logP of 0.47.

In the case of `C=CC(=O)OCCO`, the logP is -0.21.

As for `C=C(C)C(=O)OC(C)(C)C`, the logP is 2.54.

As for `C=C(C)C(=O)OCC(C)O` (centres undefined), the logP came to 0.97.

Take `C=C(C)C(=O)OCC(C)C`: the logP came to 2.66.

The next series in a line: method code SF-RC, from DOI: 10.1016/j.nucmedbio.2006.06.006, PMID: 16934700. Conditions: pH 7.4.
`Nc1ccc(-c2cc3ccccc3s2)cc1`: the logD is 2.87.

Regarding `FCCNc1ccc(-c2cc3ccccc3s2)cc1`, the logD stood at 3.46.

In the case of `FCCOc1ccc(-c2cc3ccccc3s2)cc1`, the logD was determined as 2.83.

On to `Oc1ccc(-c2cc3ccccc3s2)cc1`, for which the logD is 2.99.

`CNc1ccc(-c2cc3ccccc3s2)cc1` showed a logD of 3.2.

Regarding `CN(C)c1ccc(-c2cc3ccccc3s2)cc1`, the logD was 3.44.

Another series in a line: method code SF-AS, from Dallet, P.; Dubost, J.; Colleter, J.; Audry, E.; Creuzet, M. (1985). QSAR in a series of alpha-adrenolitic molecules: optimization of physicochemical parameters. Eur J Med Chem, 20(6)551-557.
Conditions: not given
`Cc1cc(OCCN(C)C)c(C(C)C)cc1OC1CCCCC1=O` (centres undefined): the logP came out at 3.63.

`Cc1cc(OCCN(C)C)c(C(C)C)cc1O` had a logP of 2.93.

The compound `CC(=O)Oc1cc(C(C)C)c(OCCN(C)C)cc1C` came in with a logP of 3.17.

Compound `Cc1ccc(C(C)C)c(OCCN(C)C)c1` displayed a logP of 3.79.

In turn, `COc1cccc(OC)c1OCCN(C)CCOc1cc(C)c(O)cc1C(C)C` came in with a logP of 3.12.

Regarding `CNCCOc1cc(C)c(O)cc1C(C)C`, the logP stood at 2.35.
